From patent US8575203B2, “Chemical compounds” (Boehringer Ingelheim International GmbH, priority 2010, dated 2013) come the findings set out here.

Chain of Recombinant human PDK1 enzyme (aa 52-556) (O15530 52-556): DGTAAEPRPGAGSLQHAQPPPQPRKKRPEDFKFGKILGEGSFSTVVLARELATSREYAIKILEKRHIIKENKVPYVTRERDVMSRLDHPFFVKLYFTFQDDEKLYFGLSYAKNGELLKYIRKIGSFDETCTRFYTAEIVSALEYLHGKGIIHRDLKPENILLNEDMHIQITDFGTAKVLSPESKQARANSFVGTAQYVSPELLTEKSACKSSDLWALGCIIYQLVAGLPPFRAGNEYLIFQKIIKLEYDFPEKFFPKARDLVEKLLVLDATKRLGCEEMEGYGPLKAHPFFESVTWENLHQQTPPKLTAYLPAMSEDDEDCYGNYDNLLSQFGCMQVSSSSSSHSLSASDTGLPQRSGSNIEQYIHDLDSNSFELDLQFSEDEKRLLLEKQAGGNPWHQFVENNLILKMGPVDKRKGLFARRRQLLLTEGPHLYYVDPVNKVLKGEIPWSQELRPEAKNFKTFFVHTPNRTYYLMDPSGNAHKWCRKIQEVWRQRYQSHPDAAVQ

For this experiment, the target named is Recombinant human PDK1 enzyme (aa 52-556) (Homo sapiens (Human), UniProt O15530). Briefly: PDK1 kinase assay. The format is biochemical. To be noted: in vitro kinase assay, His6-PDK1 (aa 52-556), PDKtide, P33-ATP. As to the method:
The activity of the compounds according to the invention on the kinase PDK1 which inhibits the signal transduction pathway is determined in an in vitro kinase assay with recombinantly prepared protein:
Recombinant human PDK1 enzyme (aa 52-556) linked at its N-terminal end to His6 is isolated from baculovirus-infected insect cells. Purified enzyme may be obtained for example from the University of Dundee, Scotland. The following components are combined in a well of a 96-well round-based dish (Greiner bio-one, No. 650101): • 15 μL of compound to be tested in varying concentrations (e.g. starting at 10 μM, and diluted in steps of 1:5) in APT buffer (50 mM Tris/Cl pH 7.5; 0.05% β-mercaptoethanol; 10 mM Mg-acetate; 0.0166% Tween 20; 3.33% DMSO) • 15 μL His6-PDK1 (aa 52-556) 3.33 ng/well) and PDKtide ([…]), synthesised by Pepceuticals Limited, Nottingham, United Kingdom; 25 μM final concentration); His6-PDK1 and PDKtide are together diluted accordingly in assay buffer (50 mM tris pH 7.5, 0.05% β-mercaptoethanol, 10 mM Mg-acetate); PDKtide is present in this mixture as an 83.3 μM solution. These 30 μl are routinely incubated for 30 min at RT. • 20 μL ATP solution (25 μM ATP with 1.0 μCi/well gamma-P33-ATP). The final concentration of Tween 20 is 0.005%.
The reaction is started by adding the ATP solution and the mixture is incubated for 90 min at RT. At the start of the reaction the dishes are shaken gently. The reaction is stopped by the addition of 50 μL/well of 500 mM phosphoric acid (H3PO4) and incubated for about 20 min at RT. The precipitate is transferred by harvesting onto filter plates (96-well microtitre filter plate: UniFilter GF/C; Perkin Elmer; No. 6005174), then washed 6 times with 50 mM H3PO4 and dried at 60° C. Then the plate is stuck down with sealing tape, 25 μL/well of scintillation solution (Microscint 0; Perkin Elmer; No. 6013611) are added and the amount of P33 precipitated is measured using the Wallac Betacounter. The measured data are evaluated using Graphpad Prism software.
For the molecule `CON(C)c1ncnc2ccc(C#CCNC(=O)c3cncn(Cc4ccc(F)c(F)c4)c3=O)cc12` [II-62], the IC50 (in general, the midpoint of a concentration-inhibition curve) is 16 nM. Turning to `COCCN1CCC(Nc2cnc3ccc(C#CCNC(=O)c4cccn([C@@H](CO)c5ccc(F)c(F)c5)c4=O)cc3c2)CC1` [I-77], the IC50 came out at 4 nM.

As for `CN(CCCO)c1ncnc2ccc(C#CCNC(=O)c3cccn(Cc4ccc(F)c(F)c4)c3=O)cc12` [II-34], the IC50 was 59 nM. For `COCCN1CCC(Nc2cnc3ccc(C#CCNC(=O)c4cccn(Cc5ccc(F)c(F)c5)c4=O)cc3n2)CC1` [I-49], the IC50 worked out at 9 nM.

With `CN1CCC(NC(=O)c2cnc3ccc(C#CCNC(=O)c4cncn(Cc5ccc(F)c(F)c5)c4=O)cc3c2)C1` (stereo not shown) [II-87], the IC50 is 24 nM. The value for `NC(=O)[C@@H](Cc1ccccc1)Nc1ncnc2ccc(C#CCNC(=O)c3cncn(Cc4ccc(F)c(F)c4)c3=O)cc12` [II-17] was 488 nM; that for `CN(C)CCOc1ccnc2ccc(C#CCNC(=O)c3cccn(Cc4ccc(F)c(F)c4)c3=O)cc12` [I-98] was 25 nM; that for `CNc1ncnc2ccc(C#CCNC(=O)c3cccn(Cc4ccc(F)c(F)c4)c3=O)c(C)c12` [I-3] was 8 nM. To `CN(C)CCCNc1ccnc2ccc(C#CCNC(=O)c3cncn(Cc4ccc(F)c(F)c4)c3=O)cc12` [I-119] belongs 554 nM; to `CN1CCC(N(C)c2cnc3ccc(C#CCNC(=O)c4cncn(Cc5ccc(F)c(F)c5)c4=O)cc3n2)CC1` [I-28], 21 nM.

In the case of `O=C(NCC#Cc1ccc2ncnc(NCC(O)c3ccccc3)c2c1)c1cncn(Cc2ccc(F)c(F)c2)c1=O` (stereo not shown) [II-13], the IC50 was 184 nM. Turning to `CN1CCC(Oc2ccnc3ccc(C#CCNC(=O)c4cncn(Cc5ccc(F)c(F)c5)c4=O)cc23)CC1` [I-111], the IC50 turned out to be 29 nM. `CN(C)CCCNc1ccnc2ccc(C#CCNC(=O)c3cccn(Cc4ccc(F)c(F)c4)c3=O)cc12` [I-120]: the IC50 came to 656 nM. To `C[C@@H](c1ccc(F)c(F)c1)n1cccc(C(=O)NCC#Cc2ccc3ncc(NC4CCN(C5COC5)CC4)nc3c2)c1=O` [I-58] belongs 8 nM; to `CN(CCc1ccccc1)c1ncnc2ccc(C#CCNC(=O)c3cncn(Cc4ccc(F)c(F)c4)c3=O)cc12` [II-3], 134 nM. The value for `O=C(NCC#Cc1ccc2ncnc(N3CCCC3)c2c1)c1cccn(Cc2ccc(F)c(F)c2)c1=O` [II-27] was 52 nM; that for `CN1CC(Nc2ncnc3ccc(C#CCNC(=O)c4cncn(Cc5ccc(F)c(F)c5)c4=O)cc23)C1` [II-2] was 171 nM; that for `CCN1CCC(Nc2cnc3ccc(C#CCNC(=O)c4cccn(Cc5ccc(F)c(F)c5)c4=O)cc3c2)CC1` [I-72] was 2 nM. On to `NC(=O)CNc1ncnc2ccc(C#CCNC(=O)c3cccn(Cc4ccc(F)c(F)c4)c3=O)cc12` [II-35], for which the half-maximal inhibitory concentration (IC50) came to 59 nM. Take `N#Cc1cnc2ccc(C#CCNC(=O)c3cccn(Cc4ccc(F)c(F)c4)c3=O)cc2c1NCCc1ccccc1` [II-96]: the IC50 turned out to be 607 nM.

As to `CC(C)N(C)c1c(C#N)cnc2ccc(C#CCNC(=O)c3cccn(Cc4ccc(F)c(F)c4)c3=O)cc12` [II-101], the IC50 stood at 148 nM. For `O=C(NCC#Cc1ccc2nccc(OC[C@@H]3CCCNC3)c2c1)c1cccn(Cc2ccc(F)c(F)c2)c1=O` [I-125.23], the IC50 turned out to be 4 nM. As to `CC(C)Nc1c([N+](=O)[O-])cnc2ccc(C#CCNC(=O)c3cncn(Cc4ccc(F)c(F)c4)c3=O)cc12` [I-128], the IC50 amounted to 116 nM.

With `CC(C)(CO)CNc1ncnc2ccc(C#CCNC(=O)c3cccn(Cc4ccc(F)c(F)c4)c3=O)cc12` [II-32], the IC50 came to 124 nM. In the case of `CN(C)CCNc1ccnc2ccc(C#CCNC(=O)c3cccn(Cc4ccc(F)c(F)c4)c3=O)cc12` [I-118], the IC50 was determined as 853 nM. The value for `COCCN1CCC(Nc2cnc3ccc(C#CCNC(=O)c4cncn(Cc5ccc(F)c(F)c5)c4=O)cc3c2)CC1` [I-73] was 4 nM; that for `O=C(NCC#Cc1ccc2ncnc(N3CCNCC3)c2c1)c1cncn(Cc2ccc(F)c(F)c2)c1=O` [II-9] was 443 nM; that for `CNCCCN(C)c1ncnc2ccc(C#CCNC(=O)c3cccn(Cc4ccc(F)c(F)c4)c3=O)cc12` [II-28] was 110 nM.

`CNc1ncnc2ccc(C#CCNC(=O)c3cc(OC)nn(Cc4ccc(F)c(F)c4)c3=O)cc12` [II-59]: the IC50 worked out at 9 nM. In the case of `CC1(O)CCN(c2ncnc3ccc(C#CCNC(=O)c4cccn(Cc5ccc(F)c(F)c5)c4=O)cc23)CC1` [II-41], the IC50 was 61 nM. On to `CC(C)Oc1ccnc2ccc(C#CCNC(=O)c3cncn(Cc4ccc(F)c(F)c4)c3=O)cc12` [I-97], for which the IC50 came out at 38 nM. For `COc1ccc(CN(C)c2ncnc3ccc(C#CCNC(=O)c4cccn(Cc5ccc(F)c(F)c5)c4=O)cc23)cc1` [II-52], the IC50 came out at 6 nM. As for `O=C(NC1CC1)c1cnc2ccc(C#CCNC(=O)c3cncn(Cc4ccc(F)c(F)c4)c3=O)cc2c1` [II-73], the IC50 was determined as 31 nM.

Turning to `O=C(NCC#Cc1ccc2nccc(OCC3CCNC3)c2c1)c1cncn(Cc2ccc(F)c(F)c2)c1=O` (stereo not shown) [I-122], the IC50 worked out at 3 nM. Take `CC(C)NC(=O)c1cnc2ccc(C#CCNC(=O)c3cncn(Cc4ccc(F)c(F)c4)c3=O)cc2c1` [II-77]: the IC50 was 53 nM. Regarding `O=C(NCC#Cc1ccc2nccc(OCC3CCCCO3)c2c1)c1cncn(Cc2ccc(F)c(F)c2)c1=O` (stereo not shown) [I-108], the IC50 amounted to 116 nM. The value for `O=C(NCC#Cc1ccc2ncc(NC3CCCCC3)nc2c1)c1cncn(Cc2ccc(F)c(F)c2)c1=O` [I-26] was 588 nM. To `CN1CCC(Nc2cnc3ccc(C#CCNC(=O)c4cccn([C@@H](CO)c5ccc(F)c(F)c5)c4=O)cc3n2)CC1` [I-41] belongs 3 nM; to `COc1ccnc2ccc(C#CCNC(=O)c3cncn(Cc4ccc(F)c(F)c4)c3=O)cc12` [I-91], 38 nM.

With `O=C(NCC#Cc1ccc2nccc(-c3cn[nH]c3)c2c1)c1cncn(Cc2ccc(F)c(F)c2)c1=O` [II-89], the IC50 came out at 35 nM. The value for `CNC(=O)c1cnc2ccc(C#CCNC(=O)c3cncn(Cc4ccc(F)c(F)c4)c3=O)cc2c1` [II-72] was 45 nM. As to `CN1CCCC(COc2ccnc3ccc(C#CCNC(=O)c4cccn(Cc5ccc(F)c(F)c5)c4=O)cc23)C1` (stereo not shown) [I-101], the IC50 turned out to be 5 nM.

`CN1CCN(CCCOc2ccnc3ccc(C#CCNC(=O)c4cncn(Cc5ccc(F)c(F)c5)c4=O)cc23)CC1` [I-100]: the 50% inhibitory concentration (IC50) is 14 nM. `O=C(NCC#Cc1ccc2ncnc(NCC(O)CO)c2c1)c1cccn(Cc2ccc(F)c(F)c2)c1=O` (stereo not shown) [II-37]: the IC50 was determined as 44 nM.

Turning to `CCN(CC)c1ncnc2ccc(C#CCNC(=O)c3cc(Cl)nn(Cc4ccc(F)c(F)c4)c3=O)cc12` [II-43], the IC50 was determined as 8 nM.

In the case of `CN(c1ncnc2ccc(C#CCNC(=O)c3cncn(Cc4ccc(F)c(F)c4)c3=O)cc12)C(C)(C)C` [II-19], the IC50 came to 500 nM.

As to `O=C(NCC#Cc1ccc2ncnc(NC3CCOCC3)c2c1)c1cncn(Cc2ccc(F)c(F)c2)c1=O` [II-21], the IC50 was determined as 515 nM. `CNC(=O)c1cnc2ccc(C#CCNC(=O)c3cncn(Cc4ccc(F)c(F)c4)c3=O)c(C)c2c1` [II-69]: the IC50 was found to be 21 nM. The value for `CN1CCC(Cc2cnc3ccc(C#CCNC(=O)c4cncn(Cc5ccc(F)c(F)c5)c4=O)cc3n2)CC1` [I-67] was 940 nM; that for `CC(c1cc(F)c(F)c(F)c1)n1cccc(C(=O)NCC#Cc2ccc3nccc(OC[C@H]4CCN(C)C4)c3c2)c1=O` (stereo partly shown) [I-125.11] was 4 nM.

Take `O=C(NCC#Cc1ccc2nccc(OCC3CCCCO3)c2c1)c1cccn(Cc2ccc(F)c(F)c2)c1=O` (stereo not shown) [I-109]: the IC50 is 166 nM. Turning to `O=C(NCC#Cc1ccc2ncc(N[C@H]3CC[C@H](N4CCOCC4)CC3)nc2c1)c1ccnn(Cc2ccc(F)c(F)c2)c1=O` [I-60], the IC50 stood at 7 nM. In the case of `CC(c1cc(F)c(F)c(F)c1)n1cccc(C(=O)NCC#Cc2ccc3nccc(OC[C@@H]4CCN(C)C4)c3c2)c1=O` (stereo partly shown) [I-125.1], the IC50 is 3 nM. To `CN1CCCN(c2ncnc3ccc(C#CCNC(=O)c4cccn(Cc5ccc(F)c(F)c5)c4=O)cc23)CC1` [II-29] belongs 156 nM; to `CN1CCC(Oc2ccnc3ccc(C#CCNC(=O)c4cncn(Cc5ccc(F)c(F)c5)c4=O)cc23)C1` (stereo not shown) [I-106], 119 nM.

Consider `CN(Cc1cccc2ncccc12)c1ncnc2ccc(C#CCNC(=O)c3cccn(Cc4ccc(F)c(F)c4)c3=O)cc12` [II-46], for which the IC50 came to 6 nM. For `CN1CC(NC(=O)c2cnc3ccc(C#CCNC(=O)c4cncn(Cc5ccc(F)c(F)c5)c4=O)cc3c2)C1` [II-81], the IC50 was 20 nM. As for `CCN(CC)C(=O)c1cnc2ccc(C#CCNC(=O)c3cncn(Cc4ccc(F)c(F)c4)c3=O)cc2c1` [II-71], the IC50 was determined as 1000 nM.
